From ChEMBL document CHEMBL3227979, “11-Oxo-11H-pyrido[2,1-b]quinazoline-8-carboxylic acid, an orally active antiallergy agent” (1979)
Calls of active or inactive are those of the source. The calls are words filed in the database; no cut-off is given here.

Tests used:
Rattus norvegicus [1] = test: Antiallergic activity in rat assessed as inhibition of ovalbumin-induced passive cutaneous anaphylaxis at 0.5 mg/kg, iv dosed along with ovalbumin challenge relative to control; format: functional
Rattus norvegicus [2] = test: Antiallergic activity in iv dosed rat assessed as inhibition of ovalbumin-induced passive cutaneous anaphylaxis dosed along with ovalbumin challenge; format: functional; conditions: read-out: ID50 (the source's name)
Rattus norvegicus [3] = test: Antiallergic activity in iv dosed rat assessed as inhibition of antigen-induced passive cutaneous anaphylaxis; format: functional
Rattus norvegicus [4] = test: Antiallergic activity in po dosed rat assessed as inhibition of ovalbumin-induced passive cutaneous anaphylaxis pretreated for 10 to 15 mins followed by ovalbumin challenge; format: functional; conditions: for ED50: read-out: ID50 (the source's name)
Rattus norvegicus [5] = test: Antiallergic activity in po dosed rat assessed as inhibition of antigen-induced passive cutaneous anaphylaxis; format: functional
Cavia porcellus = species on record: Cavia porcellus; test: Antagonist activity at histamine receptor in guinea pig ileum assessed as reduction in histamine-induced contractions up to 0.1 mM; format: tissue-based
Rattus norvegicus [6] = test: Antiallergic activity in rat assessed as inhibition of ovalbumin-induced passive cutaneous anaphylaxis at 5 mg/kg, iv dosed along with ovalbumin challenge relative to control; format: functional

SMILES | inhibition (Rattus norvegicus [1]) | inhibition in vivo at 0.5 mg/kg (Rattus norvegicus [1]) [%] | ED50 (Rattus norvegicus [2]) [mg/kg] | other results
Cc1cc(=O)n2cc(C(=O)O)ccc2n1 | inactive | – | – | –
O=C(O)c1cccn2c(=O)c3cc4ccccc4cc3nc12 | inactive | – | – | –
O=C(O)c1cccn2c(=O)c3ccccc3nc12 | inactive | – | – | –
O=C(O)c1ccc2nc3c(c(=O)n2c1)CCCC3 | inactive | – | – | –
O=C(O)c1ccc2nc3cc4ccccc4cc3c(=O)n2c1 | – | 100 | 0.1 | ED50 (Rattus norvegicus [3]): 0.015 mg/kg; ID50 (Rattus norvegicus [4]): inactive; ED50 (Rattus norvegicus [5]): < 0.1 mg/kg; inhibition (Cavia porcellus): inactive
O=C(O)c1ccn2c(=O)c3ccccc3nc2c1 | – | 21 | – | –
O=C(O)c1ccc2nc(O)cc(=O)n2c1 | – | – | – | inhibition in vivo at 5 mg/kg (Rattus norvegicus [6]): 26%
O=C1c2ccccc2S(=O)(=O)c2cc(-c3nn[nH]n3)ccc21 [DOXANTRAZOLE] | – | – | 1.5 | ED50 (Rattus norvegicus [4]): 5 mg/kg
O=C([O-])c1cc(=O)c2c(OCC(O)COc3cccc4oc(C(=O)[O-])cc(=O)c34)cccc2o1.[Na+].[Na+] [CROMOLYN SODIUM] | – | – | 1 | ID50 (Rattus norvegicus [4]): inactive
Cl.O=C(O)c1ccc2nc3ccccc3c(=O)n2c1 | – | 45 | 0.5 | ED50 (Rattus norvegicus [4]): 2.5 mg/kg; inhibition (Cavia porcellus): inactive
